Consider two compounds from PMC9124818 (Pharmacology Research & Perspectives, 2022).

Structures are written as SMILES. Read-outs that look alike come from different tables or passages of the source.

One data set concerns the target T1, OAT3 (Homo sapiens, UniProt Q8TCC7).
T1 construct: host or cells: HEK293
T1 sequence (Q8TCC7 1-542): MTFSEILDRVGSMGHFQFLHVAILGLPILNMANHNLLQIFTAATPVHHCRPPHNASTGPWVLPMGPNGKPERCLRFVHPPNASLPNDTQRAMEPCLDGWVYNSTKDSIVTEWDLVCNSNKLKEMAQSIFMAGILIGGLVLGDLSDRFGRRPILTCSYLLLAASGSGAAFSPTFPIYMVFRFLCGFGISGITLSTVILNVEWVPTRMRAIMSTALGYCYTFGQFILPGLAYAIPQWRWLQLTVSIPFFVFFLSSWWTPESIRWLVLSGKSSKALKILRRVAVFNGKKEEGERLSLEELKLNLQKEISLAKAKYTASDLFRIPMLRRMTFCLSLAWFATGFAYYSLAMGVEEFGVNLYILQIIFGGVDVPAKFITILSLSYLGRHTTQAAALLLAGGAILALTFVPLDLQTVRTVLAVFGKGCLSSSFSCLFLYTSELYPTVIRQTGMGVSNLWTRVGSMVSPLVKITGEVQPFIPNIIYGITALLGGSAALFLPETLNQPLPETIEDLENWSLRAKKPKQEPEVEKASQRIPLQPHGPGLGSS
Briefly: Transporter inhibition, uptake of [3H]-estrone-3-sulfate in HEK293 cells. In kind it is in vitro ADME. The method, then: (§1) The test compound (FFA or nFFA) or the positive control substrate ([…], respectively) was added to the donor chamber. […] Cells were then washed, lysed with scintillation cocktail, and analyzed for the probe substrate with a MicroBeta scintillation counter (PerkinElmer, Hopkinton, MA). Transcellular transporter assay conditions are described in Supplemental Table 1. Calculation of IC50 values was based on bidirectional permeability of probe substrate with and without the inhibitor in MDCKII cells expressing BCRP and in Caco‐2 cells expressing P‐gp, and transporter‐dependent uptake of probe substrate in HEK293 cells expressing all other transporters (Supplemental Table 1).
(§2) The transporter-specific uptake of the probe substrate in cells was determined by subtracting the accumulation in the control cells from the accumulation in the transporter-expressing cells.

Another data set has as its target T2, CYP2B6 (Homo sapiens, UniProt P20813).
T2 sequence (P20813 1-491): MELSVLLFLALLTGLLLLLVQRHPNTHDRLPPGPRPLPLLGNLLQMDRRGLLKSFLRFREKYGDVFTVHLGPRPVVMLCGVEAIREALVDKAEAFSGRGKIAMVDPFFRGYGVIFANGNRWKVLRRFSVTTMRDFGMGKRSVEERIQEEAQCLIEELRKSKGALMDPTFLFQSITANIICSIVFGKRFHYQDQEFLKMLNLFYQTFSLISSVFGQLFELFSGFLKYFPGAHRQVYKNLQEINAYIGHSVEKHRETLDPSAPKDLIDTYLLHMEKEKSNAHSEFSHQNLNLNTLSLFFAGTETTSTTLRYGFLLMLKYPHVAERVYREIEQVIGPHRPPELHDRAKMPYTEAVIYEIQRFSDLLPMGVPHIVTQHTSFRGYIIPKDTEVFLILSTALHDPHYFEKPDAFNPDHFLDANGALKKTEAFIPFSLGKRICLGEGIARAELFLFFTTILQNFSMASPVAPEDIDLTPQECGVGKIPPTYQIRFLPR
Briefly: Direct CYP450 inhibition in human liver microsomes (efavirenz 8-hydroxylation). The following applies: for Inhibition (%): FFA up to 60 µM, nFFA up to 100 µM; for Basic model: R1: R1 = 1 + (Imax,u/Ki,u). (In general: Liver microsomes are vesicles of endoplasmic reticulum, rich in cytochrome P450 enzymes.)

For the next data set, the system named is CYP450 enzymes. The data set can be described thus: Time- and metabolism-dependent CYP450 inhibition in human liver microsomes. In kind it is in vitro ADME. The following applies: compared to direct inhibition.
In data set [1] the test system is cultured human hepatocytes. The data set can be described thus: Cytotoxicity: LDH release and microscopic evaluation. In kind it is cell-based. The following applies: for hepatocyte morphology: up to 40 μM FFA or 50 μM nFFA for 3 consecutive days; for LDH release: up to 40 μM FFA or 50 μM nFFA, all three hepatocyte cultures. The protocol: Data were processed with KC4 Signature software (version 3.4, Rev 21, BioTek Instruments, Inc.) and graphed with Microsoft Excel 2003 (Microsoft Corp.). Percent LDH release was calculated based on the following equations: […]

The target in a further data set is T3, OATP1B3 (Homo sapiens, UniProt Q9NPD5).
T3 construct: host or cells: HEK293
T3 sequence (Q9NPD5 1-702): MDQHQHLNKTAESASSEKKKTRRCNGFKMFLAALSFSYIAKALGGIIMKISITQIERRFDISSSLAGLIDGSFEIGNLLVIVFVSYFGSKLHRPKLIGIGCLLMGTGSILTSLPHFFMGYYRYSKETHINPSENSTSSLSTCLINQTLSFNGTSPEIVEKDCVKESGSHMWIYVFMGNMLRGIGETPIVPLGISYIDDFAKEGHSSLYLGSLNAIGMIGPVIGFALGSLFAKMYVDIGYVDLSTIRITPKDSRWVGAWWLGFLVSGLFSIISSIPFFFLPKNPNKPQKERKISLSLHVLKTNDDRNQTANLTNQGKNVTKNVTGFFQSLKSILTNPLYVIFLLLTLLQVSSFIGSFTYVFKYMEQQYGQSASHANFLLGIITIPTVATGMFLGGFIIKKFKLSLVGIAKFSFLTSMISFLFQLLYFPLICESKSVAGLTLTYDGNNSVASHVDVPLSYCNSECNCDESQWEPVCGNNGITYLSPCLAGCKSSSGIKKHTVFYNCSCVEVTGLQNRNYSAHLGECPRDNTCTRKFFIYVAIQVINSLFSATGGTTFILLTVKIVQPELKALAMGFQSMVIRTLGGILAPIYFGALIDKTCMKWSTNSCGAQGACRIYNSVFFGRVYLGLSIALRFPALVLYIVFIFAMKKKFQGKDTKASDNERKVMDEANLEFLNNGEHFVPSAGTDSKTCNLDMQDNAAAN
The data set can be described thus: Transporter inhibition, uptake of [3H]-estradiol-17β-glucuronide in HEK293 cells. The data set is classed as in vitro ADME. The protocol:
as §1, §2

The target of a further data set is CYP2D6 (Homo sapiens, UniProt P10635). The data set can be described thus: Time- and metabolism-dependent inhibition, 30-min preincubation with or without NADPH (dextromethorphan O-demethylation). The following applies: for IC50: human liver microsomes; for inhibition at 30 min: both, human, pooled human liver microsomes, pH 7.4, probe dextromethorphan (O-demethylation).
Sequence of CYP2D6 (P10635 whole entry): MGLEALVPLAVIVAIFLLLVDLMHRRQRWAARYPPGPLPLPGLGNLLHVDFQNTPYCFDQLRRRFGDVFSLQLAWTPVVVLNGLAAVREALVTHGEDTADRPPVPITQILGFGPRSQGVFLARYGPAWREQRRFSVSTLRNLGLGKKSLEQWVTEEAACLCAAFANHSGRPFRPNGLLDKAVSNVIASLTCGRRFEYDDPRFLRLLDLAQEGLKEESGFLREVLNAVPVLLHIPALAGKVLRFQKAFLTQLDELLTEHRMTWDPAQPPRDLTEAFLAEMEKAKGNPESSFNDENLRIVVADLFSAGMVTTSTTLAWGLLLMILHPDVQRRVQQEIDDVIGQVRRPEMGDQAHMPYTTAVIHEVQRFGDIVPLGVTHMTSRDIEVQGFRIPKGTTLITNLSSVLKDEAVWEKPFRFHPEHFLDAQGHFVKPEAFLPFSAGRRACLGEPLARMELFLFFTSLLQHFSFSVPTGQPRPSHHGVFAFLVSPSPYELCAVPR

Data set [2] in a line: Pharmacokinetic input parameters of the mechanistic static model (population pharmacokinetics). The following applies: for Portal inlet [I]h: calculated as (Imax + (Fa × Fg × ka × molar dose) / Qh) / Rb; for Cmax, unbound: calculated as Cmax, total (ng/mL)/MW * fu.
Setting [3] is: direct inhibition, substrate efavirenz.

From the text for CYP2B6: A mixed‐gender pool of 200 individual human liver microsomal samples was used.
This LIMS utilizes the Levenberg-Marquardt algorithm to perform nonlinear regression fitting of the data to the following 4-parameter sigmoidal-logistic IC50 equation:
As percent of control values are utilized, the Min is set to 0 and the Max is set to 100 (or other values, as appropriate). […] Therefore, when an IC50 value falls outside the concentration range studied, the IC50 values are reported to be greater than the highest concentrations of test article evaluated.
Method for CYP2D6: These preincubations allowed assessment of the NADPH‐dependence of any time‐dependent CYP450 inhibition. Following the 30‐min preincubation, the NADPH‐generating system and/or marker substrate was added, and incubations were continued as described previously to measure residual CYP450 enzyme activity.

Broadly, the IC50 is the concentration that gives 50% inhibition. In general, inhibition refers to the drop in the measured response relative to a control, in per cent. Take `CCNC(C)Cc1cccc(C(F)(F)F)c1` (racemic) [FFA, (RS)‐ethyl(α‐methyl‐3‐trifluoromethylphenethyl)amine, reference compound]: the IC50 on OAT3 is > 30 µM; against CYP2B6, > 60 µM; on OATP1B3, > 300 µM; at CYP2D6 (IC50 (+ NADPH), 30-min preincubation in the presence of NADPH), 10 µM; against CYP2D6 (IC50 (- NADPH), 30-min preincubation in the absence of NADPH) it was 4.5 µM. In addition, the “Inhibition (%)” value on CYP2B6 (setting [3]) is reported as 6.1%. On CYP2B6 (substrate efavirenz), the “Basic model: Potential for clinical inhibition” value is reported as “No (Potential to inhibit if R1 ≥ 1.02)”. At CYP2B6 (substrate efavirenz), the “Static mechanistic model: Potential for clinical inhibition” value was “No (Potential to inhibit if AUCR ≥ 1.25)”. Further, the “Basic model: R1” value at CYP2B6 (substrate efavirenz) was determined as 1.01. Moreover, the “time- or metabolism-dependent inhibition of CYP450 enzyme activity” value in the data set with CYP450 enzymes is on record as “did not have any additional inhibitory effects”. The hepatocyte morphology result in data set [1] is recorded as “No morphological changes”. Also, the LDH release in data set [1] is ≤ 8.5 % positive control. In addition, the inhibition at 30 min on CYP2D6 (% inhibition (+ NADPH), 30-min preincubation in the presence of NADPH) came out at 82%; on CYP2D6 (% inhibition (- NADPH), 30-min preincubation in the absence of NADPH), 89%. Further, in data set [2], the “Portal inlet [I]h” value is 0.362 µM. Further, the “Cmax, unbound” value in data set [2] was 162 nM.

Consider `CC(N)Cc1cccc(C(F)(F)F)c1.Cl` (centres unmarked) [nFFA, [1‐(3‐trifluoromethyl)phenyl]propan‐2‐amine hydrochloride], for which, on OAT3 (HEK293, probe [3H]-estrone-3-sulfate 50 nM, read-out: IC50), the IC50 was > 50 µM. In addition, the IC50 against CYP2B6 (direct inhibition, human liver microsomes, substrate efavirenz) was > 100 µM. Further, the “Inhibition (%)” value on CYP2B6 (setting [3]) is recorded as 23%. Moreover, on CYP2B6 (substrate efavirenz), the “Basic model: Potential for clinical inhibition” value is listed as “No (Potential to inhibit if R1 ≥ 1.02)”, the “Static mechanistic model: Potential for clinical inhibition” value is “No (Potential to inhibit if AUCR ≥ 1.25)” and the “Basic model: R1” value amounted to 1.00. Moreover, the “time- or metabolism-dependent inhibition of CYP450 enzyme activity” value with CYP450 enzymes is listed as “did not have any additional inhibitory effects”. In addition, in data set [1], the hepatocyte morphology entry was “No morphological changes” and the LDH release was ≤ 13.8 % positive control. Also, the half-maximal inhibitory concentration (IC50) at OATP1B3 (HEK293, probe [3H]-estradiol-17β-glucuronide 50 nM, read-out: IC50) is > 50 µM. Besides, the “% inhibition (- NADPH)” value at CYP2D6 (30-min preincubation in the absence of NADPH) was 82%. Besides, the “% inhibition (+ NADPH)” value on CYP2D6 (30-min preincubation in the presence of NADPH) is 80%. Besides, the IC50 at CYP2D6 (read-out: IC50 (+ NADPH), 30-min preincubation in the presence of NADPH) worked out at 17 ± 1 µM. For the same compound, on CYP2D6 (read-out: IC50 (- NADPH), 30-min preincubation in the absence of NADPH), the IC50 came to 15 ± 1 µM. Further, in data set [2], the “Portal inlet [I]h” value is 0.094 µM and the “Cmax, unbound” value is 94 nM.
